Experiments:
[1] = MTT cytotoxicity assay, MDBK; assay type: cell-based, bovine; settings: bovine, MDBK cells; MTT, 5 days; read-out: Cell Toxicity IC50 ± SE MDBK
Experimental: (§1) An MTT (3-(4,5-dimethylthiazol-2-yl)-2,5-diphenyl tetrazolium bromide) assay was performed to investigate the toxicity of the 4-aminoquinoline hydrazone compounds. HepG2 and MDBK cells were incubated with a two-fold serial dilution at dose ranges from 0.39 to 25 µM for 5 days.
(§2) Human hepatoma (HepG2) and the Madin–Darby bovine kidney (MDBK) cell lines were purchased from American Type Culture Collection (ATCC), USA. The MDBK cell line was cultured with Dulbecco’s Modified Eagle’s Medium (DMEM) containing 4.5 g/L (+)-D-glucose and L-glutamine, while the HepG2 cell line was cultured with RPMI 1640 containing 2 mM L-glutamine and HEPES. The culture medium was supplemented with 10% Fetal Bovine Serum (FBS) and 1% penicillin. Cells were maintained in the presence of 5% CO2 atmosphere at 37 °C. The assay was carried out on a 96-well plate, with each well containing 4 × 10^3 cells. Plates were firstly incubated for 24 h at 37 °C to ensure cell adherence. The cells were then treated with 100 µL of the drug solution prepared at various concentrations and further incubated for 5 days. After the incubation period, 50 µL of the MTT (3-(4,5-dimethylthiazol-2-yl)-2,5-diphenyltetrazolium bromide, Sigma, UK) solution was added to each well and incubated for a further 3 h. The MTT solution and medium were aspirated, 150 µL of DMSO was added to each well, and the results were read on the Ascent plate reader.

[2] = tested on: MDBK cells; assay: MTT cytotoxicity assay, MDBK; assay type: cell-based, bovine; settings: MDBK IC50 (5 days) / K1 72 h IC50; IC50 = 25 μM assumed for compounds 5 and 13
Experimental: as §1, §2

[3] = tested on: P. falciparum 3D7; assay: P. falciparum 3D7 dose-response, 72 h, SYBR Green-based plate reader assay; assay type: cell-based; settings: Plasmodium falciparum, ring stage, read-out: 3D7 IC50 ± SE
Experimental: (§3) The lead compounds 1 and 2 were further evaluated against the chloroquine-resistant P. falciparum Dd2 strain and chloroquine-sensitive P. falciparum 3D7. The drug activity assay was initiated on 1% infected blood at ring stages of the parasites at four-fold serial dilution from 0.00305 to 200 µM. The growth was measured after 72 h using an SYBR Green-based plate reader assay.
(§4) In total, 1% of infected RBCs at the ring or trophozoites stage was exposed to nine dilutions (four-fold serial dilution) of compounds from 50 mM stock solutions in DMSO. A total of 100 µL of culture volume was added in 96-well plates with 100 µL drug dilutions. Plates were either incubated for 48 h or 72 h at 37 °C, 5% CO2, 5% O2 in N2. Following the incubation, 150 µL of the medium was carefully removed and 150 µL of the 5× SYBR Green solution (prepared by adding 2 µL of 10,000× SYBR Green in 4 mL of PBS) was added to each well. Plates were kept in the dark for 45 min. Fluorescence intensity was measured using a microplate reader (Genius Tecan) with an excitation of 485 nm and an emission of 535 nm.

[4] = tested on: P. falciparum K1 strain; assay: P. falciparum K1 dose-response, 72 h, SYBR Green-based plate reader assay; assay type: cell-based; settings: Plasmodium falciparum
Experimental: We set up drug efficacy assays for the eight lead compounds 1–5, 12–14 (selected based on the best antimalarial activities) (Table 1), with 72 h incubation on parasitised culture. A dose–response experiment was initiated on 1% synchronous culture at the ring stages of the P. falciparum K1 strain. The selected compounds were tested at three-fold serial dilutions from 6.86 to 5000 nM. […] The selectivity indices (IC50 human cells/IC50 parasites) were calculated based on the 72 h exposure studies and are presented in Table 2.
as §4
(§5) IC50 values were determined using Graph Pad Prism 5.0. Values were calculated using non-linear regression by using log-transformed drug concentration plotted against dose–response. Parasitaemia was calculated and normalised relative to the response on the controls (cultures without drug).

[5] = tested on: P. falciparum K1 strain; assay: P. falciparum K1 asexual growth inhibition, 48 h, SYBR Green-based plate reader assay; assay type: cell-based, Plasmodium falciparum; settings: K1 strain, trophozoite stage, 48 h incubation; for IC50: Plasmodium falciparum, read-out: Plasmodium IC50 ± SE
Experimental: Sixteen 4-amino-6-methoxy-quinoline hydrazone compounds (see Figure S1, Supplementary Materials for full structures), with methyl and phenyl substituents at the 2-position (R = Me, Ph) and various substituents at R’ (Table 1), were tested for their antimalarial activities. A 1% parasitised culture at the trophozoite stage was treated with the compounds for 48 h at concentrations of 0.003050–200 µM (four-fold serial dilution) against the P. falciparum K1 strain, and the growth was measured using the SYBR Green-based plate reader assay.
as §4, §5

[6] = MTT cytotoxicity assay, HepG2; assay type: cell-based, Human; settings: human, HepG2 cells; MTT, 5 days; read-out: Cell Toxicity IC50 ± SE HepG2
Experimental: as §1, §2

[7] = tested on: HepG2 cells; assay: MTT cytotoxicity assay, HepG2; assay type: cell-based, Human; settings: HepG2 IC50 (5 days) / K1 72 h IC50; IC50 = 25 μM assumed for compound 13
Experimental: as §1, §2

[8] = tested on: P. falciparum Dd2 strain; assay: P. falciparum Dd2 dose-response, 72 h, SYBR Green-based plate reader assay; assay type: cell-based; settings: Plasmodium falciparum, ring stage, read-out: Dd2 IC50 ± SE
Experimental: as §3, §4

[9] = tested on: P. yoelii NL
Experimental: We next assessed the antimalarial activity of compound 2 in vivo within a P. yoelii NL murine model of blood-stage malaria. […] Two dosages of the drug were tested, 5 mg/kg and 20 mg/kg (intravenous tail vein injection), while another group of mice was administered with the drug vehicle alone (Figure 3). The lead compound 2 was injected once a day for 4 days, starting at day 11 when the infection level reached ~5% parasitaemia. Mice were monitored for a total of 20 days in order to detect signs of infection rebound or eventual toxicity.
C57BL/6 mice were purchased from Charles River, UK, and were maintained at the University of Manchester in individually ventilated cages. A total of six mice were used for this experiment and kept in the cage (two in each cage) with randomisation of mice given antimalarial drugs and vehicle control. The mice were maintained in individually ventilated cages with food and water ad libitum. Male and females were kept within separate cages during the course of the experiment. The mice generally weighed 18–20 g at the start of the experiment. Cryopreserved P. yoelii NL parasites were passed once through mice before the infection experiment. Male/female mice 6–10 weeks in age were infected with 1 × 10^4 parasitised red blood cells (pRBCs) via intravenous injection in the tail vein. Parasitaemia growth was monitored via Giemsa-stained blood smears. Three groups of mice (placebo, drug dose of 5 mg/kg or 20 mg/kg) were used for this experiment. Compound 2 was injected once a day for 4 days starting at the day the infection level reached ~5% parasitaemia. After the injection, mice were monitored for 20 days to detect eventual signs of both infection rebound and toxicity.

[10] = tested on: P. falciparum K1 cultures; assay: Time-course assay, SYBR Green flow cytometer method; assay type: cell-based, Plasmodium falciparum; settings: IC50 doses, 24, 48, 72 h
Experimental: A panel of compounds were selected based on activity and progressed in the time-course assay to define the activity timelines of the compounds. The assay was performed on 1% unsynchronised P. falciparum K1 cultures treated with previously determined IC50 (Table 1) doses of the lead compounds for 24, 48, and 72 h. […] It was also observed that the activity of the compounds became more pronounced as the time progressed up until 72 h of exposure.
The time-course assay was used to define the activity timelines of the 4-aminoquinoline hydrazone compounds. Parasite growth of K1 strain P. falciparum in the presence of 4-aminoquinoline hydrazone compounds was assessed on asynchronous culture. The growth impairment of K1 culture was initiated at 1% parasitaemia for 24, 48, and 72 h. The assay was analysed by flow cytometry as described below.
Following drug efficacy experiments, 100 µL from the control and drug-treated samples on a 96-well plate were transferred to a micro-centrifuge tube containing 1 mL of PBS. The samples were centrifuged at 1200 rpm for 2 min. […] The pellet was re-suspended in PBS (1 mL) and parasitaemia was determined by SYBR Green fluorescence using the FITC channel of the BD FACs Verse flow cytometer system (Blue laser, excitation laser line 488 nM Exmax 494/EMmax 520 nM) and cell size (forward scatter, FSC-A). […]

[11] = tested on: P. falciparum K1 strain; assay: Stage specificity assay; assay type: cell-based, Plasmodium falciparum; settings: 50–100 times IC50, 24 h exposure, wash-out, further 24 h
Experimental: The stage specificity was evaluated by conducting drug susceptibility experiments on synchronous cultures either at early rings or schizonts stages (as detailed in the Section 4). […] Cultures were exposed to drug treatment for 24 h, after which the compounds were washed out and incubated in complete RPMI medium for a further 24 h.
P. falciparum K1 was synchronised twice with 5% sorbitol at 0 h and 31 h to obtain early rings (up to 3 h old). In order to obtain late trophozoites to early schizonts, the culture was synchronised twice at 0 h and 6 h. Each synchronous stage was diluted to 1% parasitaemia. […] The dilution ranged from 1.6 to 100× fold of the previously determined IC50 of each compound in a standard 48 h assay. After a 24 h incubation period, the plates were washed 4 times resulting in about a 100-fold dilution of the free compound. The plates were further incubated for an additional 24 h at 37 °C and analysed using SYBR Green staining assays as previously described.

[12] = ring stage, 72 h incubation, read-out: Plasmodium IC50 ± SE

| Structure (SMILES) | IC50 [4, 12] | IC50 [5] | IC50 at 5 days [1] | Selectivity Indices (MDBK) [2] | IC50 at 5 days [6] | Selectivity Indices (HepG2) [7] | other results |
| --- | --- | --- | --- | --- | --- | --- | --- |
| COc1ccc2nc(C)cc(N/N=C/c3cccnc3)c2c1 [Compound 3] | 0.175 ± 0.04 µM | 3.29 ± 1.6 µM | 7.34 ± 7.6 µM | 42 | 3 ± 0.27 µM | 17 | Onset of activity in time-course [10]: delayed activity |
| COc1ccc2nc(C)cc(N/N=C/c3c[nH]cn3)c2c1 [Compound 6] |  | 48.8 µM | 11.7 ± 2.5 µM |  | 7.26 ± 1 µM |  |  |
| COc1ccc2nc(C)cc(N/N=C/c3ccc([N+](=O)[O-])cc3)c2c1 [Compound 7] |  | 20.1 µM | 6.68 ± 1.7 µM |  | 1.69 µM |  |  |
| COc1ccc2nc(C)cc(N/N=C/c3ccc(O)cc3)c2c1 [Compound 8] |  | 22.3 µM | 3.73 ± 1.2 µM |  | 1.97 ± 0.42 µM |  |  |
| COc1ccc2nc(C)cc(N/N=C/c3ccc(C(=O)O)cc3)c2c1 [Compound 9] |  | > 200 µM | > 25 µM |  | > 25 µM |  | Plasmodium IC50 ± SE [5]: inactive |
| COc1ccc2nc(C)cc(N/N=C/c3cccc(O)c3)c2c1 [Compound 10] |  | 18.9 µM | 9.71 ± 3.5 µM |  | 2.64 ± 0.2 µM |  |  |
| COc1ccc2nc(C)cc(N/N=C/c3cc(O)cc(O)c3)c2c1 [Compound 11] |  | 35.9 ± 43 µM | > 25 µM |  | 11.1 ± 2.9 µM |  |  |
| COc1ccc2nc(-c3ccccc3)cc(N/N=C/c3c[nH]cn3)c2c1 [Compound 15] |  | 28.3 ± 29 µM | 9.31 ± 3.5 µM |  | 2.21 ± 0.15 µM |  |  |
| COc1ccc2nc(-c3ccccc3)cc(N/N=C/c3ccc(N(C)C)cc3)c2c1 [Compound 16] |  | 8.06 ± 4.5 µM | 6.24 µM |  | 4.15 ± 2.4 µM |  |  |

Now from value to compound, other results behind:

| IC50 [4, 12] | IC50 [5] | Structure (SMILES) | IC50 at 5 days [1] | Selectivity Indices (MDBK) [2] | IC50 at 5 days [6] | Selectivity Indices (HepG2) [7] | other results |
| --- | --- | --- | --- | --- | --- | --- | --- |
| 0.0257 µM | 0.612 ± 0.35 µM | COc1ccc2nc(C)cc(N/N=C/c3ccc(F)cc3)c2c1 [Compound 1] | 3.77 ± 1.5 µM | 147 | 0.872 ± 0.79 µM | 34 | IC50 [3]: 0.183 µM; IC50 ([4]; 72 h, read-out: IC50): 0.025 µM; IC50 [8]: 0.133 µM |
| 0.0329 ± 0.007 µM | 2.26 ± 2.2 µM | COc1ccc2nc(C)cc(NN=Cc3ccccc3)c2c1 [Compound 2, 4-(2-benzylidenehydrazinyl)-6-methoxy-2-methylquinoline] | 3.44 ± 2.7 µM | 101 | 1.9 ± 0.11 µM | 58 | Signs of toxicity in treated mice ([9]; 5 and 20 mg/kg i.v., monitored over three weeks): no detectable signs of significant toxicity; Effect on parasitaemia, 20 mg/kg and 5 mg/kg ([9]; P. yoelii NL-treated mice): suppression of parasitaemia; Parasitaemia after drug treatment was suspended ([9]; mice, 5 mg/kg and 20 mg/kg i.v. once a day for 4 days): less than 4%; Effect on parasitaemia, 5 mg/kg ([9]; mice, 5 mg/kg i.v. once a day for 4 days): delayed activity; IC50 [3]: 0.0554 µM; IC50 ([4]; 72 h, read-out: IC50): 0.032 µM; IC50 [8]: 0.0244 µM |
| 0.174 ± 0.03 µM | 3.82 µM | COc1ccc2nc(C)cc(N/N=C/c3cccc(OC)c3O)c2c1 [Compound 5] | > 25 µM | >143 | 6.73 ± 0.73 µM | 39 | Inhibition of parasitaemia growth, schizont stage [11]: more than 25% |
| 0.133 ± 0.06 µM | 5.67 ± 13 µM | COc1ccc2nc(-c3ccccc3)cc(N/N=C/c3cccc(OC)c3O)c2c1 [Compound 12] | 6.6 µM | 50 | 1.8 ± 0.78 µM | 14 |  |
| 0.176 ± 0.06 µM | 2.2 ± 1.5 µM | COc1ccc2nc(-c3ccccc3)cc(N/N=C/c3ccc([N+](=O)[O-])cc3)c2c1 [Compound 14] | 4.24 ± 1 µM |  | 0.89 ± 0.13 µM | 5 | Inhibition of parasitaemia growth, schizont stage [11]: more than 25% |
